Measured values reported in ChEMBL document CHEMBL3758102, “Serrulatane Diterpenoid from Eremophila neglecta Exhibits Bacterial Biofilm Dispersion and Inhibits Release of Pro-inflammatory Cytokines from Activated Macrophages” (J Nat Prod, 2015).
Values after ≈ are worked out from the molar mass of the structure shown. Active and inactive are the calls of the source. No cut-off for these calls is given here.

How the values were obtained:
[1] = system: Staphylococcus epidermidis; assay: (§1) Antibiofilm activity against Staphylococcus epidermidis ATCC 35984 assessed as 12 hrs pre-established biofilm viable cell count at 0.02 umol/mesh after 20 hrs by […] using compound impregnated in polypropylene mesh (reference value: 8.6 x 10^9 CFU/ml); format: functional
[2] = Induction of apoptosis in C57Bl/6 mouse BMDM cells assessed as late apoptotic cells at 80 uM by annexin V-FITC/DAPI staining-based flow cytometric analysis (reference value: 28.4%); format: functional, C57BI/6
[3] = system: Staphylococcus epidermidis; assay: Antibiofilm activity against Staphylococcus epidermidis ATCC 35984 assessed as inhibition of 12 hrs pre-established biofilm formation at 0.16 umol after 20 hrs by safranin staining-based UV-visible spectroscopic analysis using compound impregnated in polypropylene mesh; format: functional, organism-based
[4] = system: BMDM; assay: Increase in IL-1beta production in C57Bl/6 mouse BMDM cells at 20 uM pretreated for 1 hr prior to ATP-stimulation by ELISA; format: functional, cell-based; conditions: C57BI/6
[5] = system: Staphylococcus epidermidis; assay: Antibiofilm activity against Staphylococcus epidermidis ATCC 35984 assessed as induction of loosely attached live and dead bacteria in 12 hrs pre-established biofilm at 0.064 umol/well after 20 hrs by fluorescence staining-based confocal microscopic analysis; format: functional, organism-based
[6] = system: Staphylococcus epidermidis; assay: Antibiofilm activity against Staphylococcus epidermidis ATCC 35984 assessed as 24 hrs pre-established biofilm viable cell count after 20 hrs (reference value: 1.4 x 10^10 +/- 2.6 x 10^9 CFU/ml); format: functional
[7] = system: Staphylococcus epidermidis; assay: Antibiofilm activity against Staphylococcus epidermidis ATCC 35984 assessed as reduction in 12 hrs pre-established biofilm viable cell count after 20 hrs (reference value: 1.2 x 10^10 CFU/ml); format: functional
[8] = system: Pseudomonas aeruginosa; assay: Antibacterial activity against Pseudomonas aeruginosa ATCC 27853 at 658 uM incubated overnight by broth microdilution method; format: functional, organism-based
[9] = system: Staphylococcus epidermidis; assay: Antibiofilm activity against Staphylococcus epidermidis ATCC 35984 assessed as 12 hrs pre-established supernatant viable cell count at 0.08 umol/mesh after 20 hrs by […] using compound impregnated in polypropylene mesh (Rvb =7.7 x 10^8 CFU/ml); format: functional
[10] = system: Staphylococcus epidermidis; assay: as §1, with “0.01” for “0.02”; format: functional
[11] = system: Staphylococcus epidermidis; assay: as §1, with “0.08” for “0.02”; format: functional
[12] = system: BMDM; assay: Inhibition of IL-6 production in C57Bl/6 mouse BMDM cells at 10 uM pretreated prior to LPS-stimulation measured on day 7 by ELISA; format: functional, cell-based; conditions: C57BI/6
[13] = system: Staphylococcus aureus; assay: Antibacterial activity against Staphylococcus aureus ATCC 25923 incubated overnight by broth microdilution method; format: functional
[14] = system: Staphylococcus epidermidis; assay: Antibiofilm activity against Staphylococcus epidermidis ATCC 35984 assessed as inhibition of 24 hrs pre-established biofilm formation at 0.064 umol/well after 20 hrs by visible spectrometric analysis; format: functional, organism-based
[15] = Induction of apoptosis in C57Bl/6 mouse BMDM cells assessed as late apoptotic cells at 20 uM by annexin V-FITC/DAPI staining-based flow cytometric analysis (reference value: 28.4%); format: functional, C57BI/6
[16] = system: Staphylococcus epidermidis; assay: Antibiofilm activity against Staphylococcus epidermidis ATCC 35984 assessed as inhibition of 12 hrs pre-established biofilm formation at 0.064 umol/well after 20 hrs by visible spectrometric analysis; format: functional, organism-based
[17] = system: Staphylococcus epidermidis; assay: Antibiofilm activity against Staphylococcus epidermidis ATCC 35984 assessed as inhibition of 24 hrs pre-established biofilm formation at 0.064 umol/well after 20 hrs by safranin staining-based method; format: functional, organism-based
[18] = system: Staphylococcus epidermidis; assay: Antibiofilm activity against Staphylococcus epidermidis ATCC 35984 assessed as reduction in 12 hrs pre-established biofilm viable cell count at 0.16 umol after 20 hrs relative to control; format: functional
[19] = Induction of apoptosis in C57Bl/6 mouse BMDM cells assessed as dead cells at 40 uM by annexin V-FITC/DAPI staining-based flow cytometric analysis (reference value: 24.4%); format: functional, C57BI/6
[20] = Induction of apoptosis in C57Bl/6 mouse BMDM cells assessed as dead cells at 80 uM by annexin V-FITC/DAPI staining-based flow cytometric analysis (reference value: 24.4%); format: functional, C57BI/6
[21] = Induction of apoptosis in C57Bl/6 mouse BMDM cells assessed as viable cells at 40 uM by annexin V-FITC/DAPI staining-based flow cytometric analysis (reference value: 46.7%); format: functional; conditions: C57BI/6, BMDM, read-out: Activity
[22] = Induction of apoptosis in C57Bl/6 mouse BMDM cells assessed as late apoptotic cells at 160 uM by annexin V-FITC/DAPI staining-based flow cytometric analysis (reference value: 28.4%); format: functional, C57BI/6
[23] = Induction of apoptosis in C57Bl/6 mouse BMDM cells assessed as early apoptotic cells at 2.5 uM by annexin V-FITC/DAPI staining-based flow cytometric analysis (reference value: 0.49%); format: functional, C57BI/6
[24] = Induction of apoptosis in C57Bl/6 mouse BMDM cells assessed as dead cells at 20 uM by annexin V-FITC/DAPI staining-based flow cytometric analysis (reference value: 24.4%); format: functional, C57BI/6
[25] = system: BMDM; assay: Inhibition of IL-6 production in C57Bl/6 mouse BMDM cells at 2.5 to 80 uM pretreated prior to LPS-stimulation measured on day 7 by ELISA; format: functional, cell-based; conditions: C57BI/6
[26] = Induction of apoptosis in C57Bl/6 mouse BMDM cells assessed as viable cells at 2.5 uM by annexin V-FITC/DAPI staining-based flow cytometric analysis (reference value: 46.7%); format: functional; conditions: C57BI/6, BMDM, read-out: Activity
[27] = system: Staphylococcus epidermidis; assay: Antibiofilm activity against Staphylococcus epidermidis ATCC 35984 assessed as 6 hrs pre-established biofilm viable cell count after 20 hrs (reference value: 8.3 x 10^9 CFU/ml); format: functional
[28] = Induction of apoptosis in C57Bl/6 mouse BMDM cells assessed as viable cells at 160 uM by annexin V-FITC/DAPI staining-based flow cytometric analysis (reference value: 46.7%); format: functional; conditions: C57BI/6, BMDM, read-out: Activity
[29] = Induction of apoptosis in C57Bl/6 mouse BMDM cells assessed as early apoptotic cells at 40 uM by annexin V-FITC/DAPI staining-based flow cytometric analysis (reference value: 0.49%); format: functional, C57BI/6
[30] = system: BMDM; assay: Decrease in IL-1beta production in C57Bl/6 mouse BMDM cells at 2.5 to 80 uM pretreated for 1 hr prior to ATP-stimulation by ELISA; format: functional, cell-based; conditions: C57BI/6
[31] = system: Staphylococcus epidermidis; assay: Antibiofilm activity against Staphylococcus epidermidis ATCC 35984 assessed as inhibition of 12 hrs pre-established biofilm formation after 20 hrs by safranin staining-based UV-visible spectroscopic analysis using compound impregnated in polypropylene mesh; format: functional, organism-based
[32] = Induction of apoptosis in C57Bl/6 mouse BMDM cells assessed as dead cells at 2.5 uM by annexin V-FITC/DAPI staining-based flow cytometric analysis (reference value: 24.4%); format: functional, C57BI/6
[33] = system: Staphylococcus aureus; assay: Antibacterial activity against Staphylococcus aureus ATCC 29213 incubated overnight by broth microdilution method; format: functional

Compound: CC(C)=CCC[C@H](C)[C@@H]1CC[C@@H](C)c2c(O)cc(C(=O)O)cc21
- Activity [1]: 9.1 ×10⁸ CFU/ml
- Activity [2]: 44.4%
- inhibition [3]: Active
- Activity [4]: inactive
- Activity [5]: Active
- Activity [6]: 4.2 ×10⁸ CFU/ml
- Activity [7]: 7 log10CFU/ml
- Activity [8]: inactive
- Activity [9]: 4.4 ×10⁴ CFU/ml
- Activity [10]: 1.6 ×10⁹ CFU/ml
- Activity [11]: 2.7 ×10⁵ CFU/ml
- inhibition [12]: inactive
- MBC [13]: 82 µM (≈ 25.9 µg/mL)
- MIC [13]: 41 µM (≈ 13 µg/mL)
- inhibition [14]: Active
- Activity [15]: 27%
- inhibition [16]: Active
- Activity [17]: inactive
- Activity [18]: 5 log10CFU/ml
- Activity [19]: 21.8%
- Activity [20]: 23.9%
- viability at 40 µM [21]: 49.5%
- Activity [22]: 3.88%
- Activity [23]: 2.54%
- Activity [24]: 6.76%
- inhibition [25]: Active
- viability at 2.5 µM [26]: 51.4%
- Activity [27]: 0 CFU/ml
- viability at 160 µM [28]: 53%
- Activity [29]: 0.99%
- Activity [30]: inactive
- inhibition [31]: Dose-dependent effect
- Activity [32]: 13.3%
- MBC [33]: 82 µM (≈ 25.9 µg/mL)
- MIC [33]: 82 µM (≈ 25.9 µg/mL)
